≈ marks a conversion by molar mass, not a printed value.
Assays:
[1] = tested on: Mycobacterium tuberculosis; assay: Antitubercular activity against Mycobacterium tuberculosis assessed as reduction in microbial growth by broth dilution method; type: functional
Mycobacterium marinum = assay: Antitubercular activity against Mycobacterium marinum assessed as reduction in microbial growth by broth dilution method; type: functional
[2] = Solubility of the compound at pH 2.0; type: physicochemical; conditions: buffer
[3] = Lipophilicity, log D of the compound at pH 7.4; type: physicochemical; conditions: buffer
[4] = Half life in mouse liver microsomes; type: ADME, Microsome
[5] = Solubility of the compound at pH 6.5; type: physicochemical; conditions: buffer
[6] = Intrinsic clearance in mouse liver microsomes; type: ADME, Microsome; conditions: read-out: CLH

Question: What does the source list for `Cn1nnnc1SCC(=O)N1CCCC1`?
Answer: MIC90 [1]: > 100 µg/mL; MIC90 (Mycobacterium marinum): > 100 µg/mL

Question: Which MIC90 [1] does the source give for `CC1CCN(C(=O)CS(=O)(=O)c2nnnn2C)CC1` here?
Answer: Its MIC90 is 1.56 µg/mL.

Question: What about the MIC90 (Mycobacterium marinum) of the same compound?
Answer: Its MIC90 is 12.5 µg/mL.

Question: Which results are given for `Cn1nnnc1S(=O)(=O)CC(=O)N1CCN(c2ccccc2)CC1`?
Answer: solubility [2]: 50 mg/mL (≈ 143 mM); logD [3]: 4.8; half-life [4]: 0.333 h; solubility [5]: 25 mg/mL (≈ 71.3 mM); MIC90 [1]: 1.25 µg/mL; MIC90 (Mycobacterium marinum): 10 µg/mL; microsomal CLint [6]: 85 µL/min/mg

Question: For `CC1CCN(C(=O)C[S+]([O-])c2nnnn2-c2ccccc2)CC1` (centres undefined), which MIC90 [1] is on record?
Answer: The MIC90 was 25 µg/mL.

Question: What about the MIC90 (Mycobacterium marinum) of the same compound?
Answer: Its MIC90 is 100 µg/mL.

Question: Which MIC90 [1] does the source give for `Cn1nnnc1S(=O)(=O)CC(=O)N1CCCC1` here?
Answer: The MIC90 was 6.25 µg/mL.

Question: What about the MIC90 (Mycobacterium marinum) of the same compound?
Answer: Its MIC90 is 12.5 µg/mL.

Question: For `CN(C(=O)CSc1nnnn1-c1ccccc1)c1ccccc1`, which MIC90 [1] is on record?
Answer: Its MIC90 is over 100 µg/mL.

Question: What about the MIC90 (Mycobacterium marinum) of the same compound?
Answer: The MIC90 was over 100 µg/mL.

Question: Which results are given for `O=C(CS(=O)(=O)c1nnc2ncccn12)N1CCN(c2ccccc2)CC1`?
Answer: MIC90 [1]: > 100 µg/mL; MIC90 (Mycobacterium marinum): > 100 µg/mL

Question: With `O=C(CS(=O)(=O)c1nnnn1-c1ccccc1)NC1CCCCC1` as the compound, how does the MIC90 [1] read?
Answer: Its MIC90 is 100 µg/mL.

Question: What about the MIC90 (Mycobacterium marinum) of the same compound?
Answer: The MIC90 was 100 µg/mL.

Question: Which MIC90 [1] does the source give for `CN(C(=O)CS(=O)(=O)c1nc(O)nn1C)c1ccccc1` here?
Answer: The MIC90 was over 100 µg/mL.

Question: And the MIC90 (Mycobacterium marinum)?
Answer: The MIC90 was over 100 µg/mL.

Question: Which MIC90 [1] does the source give for `Cn1nnnc1SCC(=O)N1CCCCC1` here?
Answer: Its MIC90 is over 100 µg/mL.

Question: What about the MIC90 (Mycobacterium marinum) of the same compound?
Answer: The MIC90 was over 100 µg/mL.

Question: What does the source list for `O=C(CS(=O)(=O)c1nnnn1-c1ccccc1)N1CCCC1`?
Answer: MIC90 [1]: 20 µg/mL; MIC90 (Mycobacterium marinum): > 100 µg/mL

Question: With `CO[C@H]1/C=C/O[C@@]2(C)Oc3c(C)c(O)c4c(O)c(c(/C=N/N5CCN(C)CC5)c(O)c4c3C2=O)NC(=O)/C(C)=C\C=C\[C@H](C)[C@H](O)[C@@H](C)[C@@H](O)[C@@H](C)[C@H](OC(C)=O)[C@@H]1C` [RIFAMPIN] as the compound, how does the MIC90 [1] read?
Answer: Its MIC90 is 0.06 µg/mL.

Question: What about the MIC90 (Mycobacterium marinum) of the same compound?
Answer: Its MIC90 is 0.2 µg/mL.

Question: Which solubility [2] does the source give for `Cn1nnnc1S(=O)(=O)CC(=O)N1CCCCC1` here?
Answer: Its solubility is over 100 mg/mL.

Question: And the logD [3]?
Answer: Its logD is 1.6.

Question: What about the half-life [4] of the same compound?
Answer: The half-life was 2.93 h.

Question: And the solubility [5]?
Answer: Its solubility is over 100 mg/mL.

Question: What about the MIC90 [1] of the same compound?
Answer: Its MIC90 is 1.56 µg/mL.

Question: What about the MIC90 (Mycobacterium marinum) of the same compound?
Answer: The MIC90 was 12.5 µg/mL.

Question: What about the microsomal CLint [6] of the same compound?
Answer: The microsomal CLint was 10 µL/min/mg.

Question: Which MIC90 [1] does the source give for `COc1cccc(-c2n[nH]c(S(=O)(=O)CC(=O)N3CCC(C)CC3)n2)c1` here?
Answer: Its MIC90 is over 100 µg/mL.

Question: What about the MIC90 (Mycobacterium marinum) of the same compound?
Answer: The MIC90 was over 100 µg/mL.

Question: With `CC1CCN(C(=O)CS(=O)(=O)c2nnnn2-c2ccccc2)CC1` as the compound, how does the MIC90 [1] read?
Answer: The MIC90 was 12.5 µg/mL.

Question: And the MIC90 (Mycobacterium marinum)?
Answer: The MIC90 was 100 µg/mL.

Question: With `CC1CCCN(C(=O)CS(=O)(=O)c2nnnn2C)C1` (centres undefined) as the compound, how does the MIC90 [1] read?
Answer: Its MIC90 is 6.25 µg/mL.

Question: What about the MIC90 (Mycobacterium marinum) of the same compound?
Answer: The MIC90 was 25 µg/mL.

Question: For `CN(C(=O)CS(=O)(=O)c1nnnn1C)c1ccccc1`, which MIC90 [1] is on record?
Answer: Its MIC90 is 2.5 µg/mL.

Question: What about the MIC90 (Mycobacterium marinum) of the same compound?
Answer: The MIC90 was 100 µg/mL.

Question: Which results are given for `O=C(CSc1nnnn1-c1ccccc1)N1CCCC1`?
Answer: MIC90 [1]: 50 µg/mL; MIC90 (Mycobacterium marinum): 100 µg/mL

Question: For `CC1CCCCN1C(=O)CS(=O)(=O)c1nnnn1C` (centres undefined), which MIC90 [1] is on record?
Answer: The MIC90 was 3.13 µg/mL.

Question: What about the MIC90 (Mycobacterium marinum) of the same compound?
Answer: Its MIC90 is 25 µg/mL.

Question: For `Cn1nnnc1S(=O)(=O)CC(=O)NC1CCCCC1`, which MIC90 [1] is on record?
Answer: Its MIC90 is 6.25 µg/mL.

Question: What about the MIC90 (Mycobacterium marinum) of the same compound?
Answer: Its MIC90 is 12.5 µg/mL.

Question: With `O=C(CS(=O)(=O)c1nnc2ncccn12)N1CCCCC1` as the compound, how does the MIC90 [1] read?
Answer: Its MIC90 is over 100 µg/mL.

Question: What about the MIC90 (Mycobacterium marinum) of the same compound?
Answer: The MIC90 was over 100 µg/mL.

Question: Which MIC90 [1] does the source give for `CCN(CC)C(=O)CS(=O)(=O)c1nnnn1-c1ccccc1` here?
Answer: The MIC90 was 20 µg/mL.

Question: What about the MIC90 (Mycobacterium marinum) of the same compound?
Answer: Its MIC90 is over 100 µg/mL.

Question: Which MIC90 [1] does the source give for `CCC1CCCCN1C(=O)CS(=O)(=O)c1nnnn1C` (centres undefined) here?
Answer: The MIC90 was 2.5 µg/mL.

Question: What about the MIC90 (Mycobacterium marinum) of the same compound?
Answer: The MIC90 was 100 µg/mL.

Question: Which MIC90 [1] does the source give for `CC1CCCCN1C(=O)CS(=O)(=O)c1nnnn1-c1ccccc1` (centres undefined) here?
Answer: The MIC90 was 12.5 µg/mL.

Question: What about the MIC90 (Mycobacterium marinum) of the same compound?
Answer: The MIC90 was 100 µg/mL.

Question: With `CN(C(=O)C[S+]([O-])c1nnnn1-c1ccccc1)c1ccccc1` (centres undefined) as the compound, how does the MIC90 [1] read?
Answer: The MIC90 was 50 µg/mL.

Question: And the MIC90 (Mycobacterium marinum)?
Answer: The MIC90 was 100 µg/mL.

Question: Which results are given for `CCN(CC)C(=O)CS(=O)(=O)c1nnnn1C`?
Answer: MIC90 [1]: 10 µg/mL; MIC90 (Mycobacterium marinum): 100 µg/mL

Question: For `Cn1nnnc1S(=O)(=O)CC(=O)N1CCCCCC1`, which MIC90 [1] is on record?
Answer: The MIC90 was 1.25 µg/mL.

Question: What about the MIC90 (Mycobacterium marinum) of the same compound?
Answer: Its MIC90 is 100 µg/mL.

Question: What does the source list for `CC1CCN(C(=O)CS(=O)(=O)c2nc(-c3ccc(Cl)cc3)n[nH]2)CC1`?
Answer: MIC90 [1]: > 100 µg/mL; MIC90 (Mycobacterium marinum): > 100 µg/mL

Question: For `CN(C(=O)CS(=O)(=O)c1nnnn1-c1ccccc1)c1ccccc1`, which MIC90 [1] is on record?
Answer: The MIC90 was 10 µg/mL.

Question: And the MIC90 (Mycobacterium marinum)?
Answer: The MIC90 was 50 µg/mL.

Question: With `O=C(CS(=O)(=O)c1nnnn1-c1ccccc1)N1CCN(c2ccccc2)CC1` as the compound, how does the MIC90 [1] read?
Answer: Its MIC90 is 10 µg/mL.

Question: And the MIC90 (Mycobacterium marinum)?
Answer: The MIC90 was 100 µg/mL.

Question: Which MIC90 [1] does the source give for `O=C(CS(=O)(=O)c1nnnn1-c1ccccc1)N1CCCCC1` here?
Answer: Its MIC90 is 10 µg/mL.

Question: And the MIC90 (Mycobacterium marinum)?
Answer: The MIC90 was 100 µg/mL.

Question: With `CC1CCN(C(=O)CSc2nnnn2-c2ccccc2)CC1` as the compound, how does the MIC90 [1] read?
Answer: Its MIC90 is over 50 µg/mL.

Question: And the MIC90 (Mycobacterium marinum)?
Answer: Its MIC90 is over 100 µg/mL.

Reference: ChEMBL document CHEMBL5365404, “Synthesis and biological evaluation of 2-(Tetrazol-5-yl)sulfonylacetamides as inhibitors of Mycobacterium tuberculosis and Mycobacterium marinum” (Bioorg Med Chem Lett, 2023)
